Experiments:
[1] = Concentration required for 50% inhibition of influenza neuraminidase incubated in rat plasma at 37 degrees Celsius prior to assay; assay type: cell-free; details: unidentified influenza virus
[2] = Concentration required for 50% inhibition of influenza neuraminidase; design: species or system unidentified influenza virus

SMILES | IC50 [1] [nM] | IC50 [2] [nM]
CCCS[C@@H]1C=C(C(=O)O)C[C@H](N)[C@H]1NC(C)=O | 212 | –
CCCO[C@@H]1C=C(C(=O)O)C[C@H](N)[C@H]1NC(C)=O | – | 130
CCCC[C@@H]1C=C(C(=O)O)C[C@H](N)[C@H]1NC(C)=O | – | 220
